{
  "source": "paper PMC10566475",
  "about": "“A cell-active cyclic peptide targeting the Nrf2/Keap1 protein–protein interaction” (Chemical Science, 2023)",
  "test_system": "NQO1 gene expression in BEAS-2B cells (Homo sapiens)",
  "sequence (Q14145 whole entry)": "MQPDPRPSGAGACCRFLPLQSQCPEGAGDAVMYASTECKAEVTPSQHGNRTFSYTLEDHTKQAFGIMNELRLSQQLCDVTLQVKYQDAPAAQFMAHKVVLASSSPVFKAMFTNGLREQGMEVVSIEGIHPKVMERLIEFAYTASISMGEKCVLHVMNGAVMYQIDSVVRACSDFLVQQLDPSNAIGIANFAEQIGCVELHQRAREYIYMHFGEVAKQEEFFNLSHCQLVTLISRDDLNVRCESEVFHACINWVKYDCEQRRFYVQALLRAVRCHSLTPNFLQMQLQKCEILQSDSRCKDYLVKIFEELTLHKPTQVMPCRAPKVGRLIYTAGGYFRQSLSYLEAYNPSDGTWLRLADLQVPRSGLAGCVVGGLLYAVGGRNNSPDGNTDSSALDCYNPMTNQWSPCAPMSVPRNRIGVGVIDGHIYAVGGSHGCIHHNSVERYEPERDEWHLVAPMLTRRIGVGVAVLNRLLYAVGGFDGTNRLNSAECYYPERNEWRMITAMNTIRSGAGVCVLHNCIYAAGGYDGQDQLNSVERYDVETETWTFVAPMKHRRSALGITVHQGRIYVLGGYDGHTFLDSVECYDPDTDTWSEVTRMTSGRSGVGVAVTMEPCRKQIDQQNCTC",
  "assay": "BEAS-2B NQO1 assay (qPCR of NQO1 mRNA)",
  "type": "cell-based",
  "settings": "24 h, concentrations of up to 10 μM",
  "description": "The effect of peptides on Nrf2-dependent gene expression was investigated in BEAS-2B cells, where we determined the upregulation of the mRNA of NAD(P)H quinone dehydrogenase (NQO1) by qPCR. The expression of NQO1 is Nrf2-dependent and it is one of the two major quinone reductases, which play a crucial role in protecting cells from oxidative stress.[40] ^§§ In the context of this study we chose BEAS-2B cells as a representative model for epithelial cells. The presence of serum has been reported to affect BEAS-2B cell phenotype. Specifically, exposure of BEAS-2B to FBS has been associated with squamous differentiation, alteration in cytokine secretion and response to toxicants.[42–44] […] In order to improve the cellular uptake, we took of advantage of the 2C-PS moiety, which not only allows the easy synthesis of a variety of macrocycles of different ring sizes, but also permits the facile introduction of a diverse set of moieties, which could enhance cell permeability. We pursued a diverse set of strategies to make the Keap1 peptide more cell permeable, namely: masking of the acidic amino acids with methyl esters, introduction of polyarginine peptides, GWWG-polyarginine peptides or a long-chain fatty acid tag onto the staple, as well as peptide shortening and a combination of these. The rationale behind these strategies is explained herein, and details of their synthesis can be found in the ESI. ^†\nCellular Biology Experimental\n(Thermo Fisher Scientific, USA).\ncalculated using QunatStudio 7 software.",
  "note": "*1 amine or outer side, *2 acyl side, *3 side chain or, on linkers, in order; H or OH if unused. Where a SMILES comes first, the peptide text is derived from it. Bridges are numbered along the chain shown (N, C = ends). Roman numbers before positions name the chains, in order. [ ]: non-standard residue; d: D form. X3 = CCCCCCCCCCCCCCCCCC(=O)NCCCC[C@H](NC(=O)COCCOCCNC(=O)COCCOCCn1cc(COCCOCCNc2nc(CC[*:1])cc(CC[*:2])n2)nn1)C(=O)NCCOCCOCC(=O)NCCOCCOCC(N)=O; X2 = O=C(CCCCn1cc(COCCOCCNc2nc(CC[*:1])cc(CC[*:2])n2)nn1)[*:3]",
  "data": [
    {"smiles": "CC(=O)N[C@H]1CSCCc2cc(nc(NCCOCCOCc3cn(CCCCC(=O)NCC(=O)N[C@@H](Cc4c[nH]c5ccccc45)C(=O)N[C@@H](Cc4c[nH]c5ccccc45)C(=O)NCC(=O)N[C@H](CCCNC(=N)N)C(=O)N[C@H](CCCNC(=N)N)C(=O)N[C@H](CCCNC(=N)N)C(N)=O)nn3)n2)CCSC[C@@H](C(=O)N[C@@H](CC(C)C)C(N)=O)NC(=O)[C@H](CCC(=O)O)NC(=O)CNC(=O)[C@H]([C@@H](C)O)NC(=O)[C@H](CCC(=O)O)NC(=O)[C@@H]2CCCN2C(=O)[C@H](CC(=O)O)NC(=O)[C@H](CC(C)C)NC(=O)[C@H](CCC(N)=O)NC(=O)[C@H](CC(C)C)NC1=O", "note": "[Peptide P3-G] (I: Ac-CLQLDPETGECL-NH2 / II: GWWG[dR][dR][dR]-NH2; linker I:1-I:11-II:N via X2)", "values": [
      {"measurement": "induction of NQO1 mRNA (Nrf2-dependent gene expression)", "result": "no activity was detected"}
    ]},
    {"smiles": "CCCCCCCCCCCCCCCCCC(=O)NCCCC[C@H](NC(=O)COCCOCCNC(=O)COCCOCCn1cc(COCCOCCNc2nc3cc(n2)CCSC[C@@H](C(=O)N[C@@H](CC(C)C)C(N)=O)NC(=O)[C@H](CCC(=O)O)NC(=O)CNC(=O)[C@H]([C@@H](C)O)NC(=O)[C@H](CCC(=O)O)NC(=O)[C@@H]2CCCN2C(=O)[C@H](CC(=O)O)NC(=O)[C@H](CC(C)C)NC(=O)[C@H](CCC(N)=O)NC(=O)[C@H](CC(C)C)NC(=O)[C@@H](NC(C)=O)CSCC3)nn1)C(=O)NCCOCCOCC(=O)NCCOCCOCC(N)=O", "note": "[Peptide P3-H] (Ac-CLQLDPETGECL-NH2; linker 1-11 via X3)", "values": [
      {"measurement": "induction of NQO1 mRNA (Nrf2-dependent gene expression)", "result": "did not induce Nrf2-dependent gene expression"}
    ]},
    {"smiles": "CC(=O)N[C@H]1CSCCc2cc(nc(NCCOCCOCc3cn(CCCCC(=O)NCC(=O)N[C@@H](Cc4c[nH]c5ccccc45)C(=O)N[C@@H](Cc4c[nH]c5ccccc45)C(=O)NCC(=O)N[C@H](CCCNC(=N)N)C(=O)N[C@H](CCCNC(=N)N)C(=O)N[C@H](CCCNC(=N)N)C(N)=O)nn3)n2)CCSC[C@@H](C(=O)N[C@@H](CC(C)C)C(N)=O)NC(=O)[C@H](CCC(=O)O)NC(=O)CNC(=O)[C@H]([C@@H](C)O)NC(=O)[C@H](CCC(=O)O)NC(=O)[C@@H]2CCCN2C(=O)[C@H](CC(=O)O)NC1=O", "note": "[Peptide P8-G]", "values": [
      {"measurement": "induction of NQO1 mRNA (Nrf2-dependent gene expression)", "result": "did not lead to any activity"}
    ]}
  ]
}
